In patent publication US20260097083A1, “METHOD FOR PRODUCING PANCREATIC ENDODERM CELLS” (Kyoto University, priority 2022, published 2026):
Where a name gives a salt, the structure may show the parent alone.

Columns and labels:
[1] = test system: PDX1+/NKX6.1+ pancreatic endoderm cells derived from human iPS cells; experiment: Examination of other ROCK inhibitors for proliferating pancreatic endoderm cells; type: cell-based; settings: 1 week, FIGS. 3-B and 3-C
Description: FIG. 3-A A schematic diagram illustrating an experiment of examining other ROCK inhibitors. […] After the elapse of one week, the cells were counted under a fluorescence microscope.
Cells were differentiated to a pancreatic endoderm cell level using a stepwise differentiation-inducing method, and were then re-seeded on a 24-well plate at 2×10^5/well. The following culture media were added to these cultured cells, and the cells were cultured for 1 week. The culture medium for the Control group was improved MEM to which 0.5×B-27 Supplement, 100 U/ml penicillin/streptomycin, 100 ng/ml KGF/FGF7, 50 ng/ml EGF, and 10 mM nicotinamide had been added. […] After fixed using 4% PFA, the cells were subjected to β-gal staining and NKX6.1 antibody immunostaining, and fluorescently stained images were acquired using BZ-800 (Keyence). The number of NKX6.1-positive cells, the NKX6.1-positive ratio, and the β-gal-positive ratio were calculated using the BZ-H4CM/Macro Cell Count function of that microscope. FIGS. 2-A and 3-A show the outline of this procedure.
The experiments were conducted in the same manner as in Example 1. FIGS. 3-B and 3-C show the results.

[2] = test system: NKX6.1-positive pancreatic endoderm cells derived from human iPS cells; experiment: Screening of senescence-related reagents; type: cell-based
Description: FIG. 2-A A schematic diagram illustrating senescence-related reagent screening. […] After the elapse of one week, the cells were counted under a fluorescence microscope. Cells were differentiated to a pancreatic endoderm cell level using a stepwise differentiation-inducing method, and were then re-seeded on a 24-well plate at 2×10^5/well. The following culture media were added to these cultured cells, and the cells were cultured for 1 week. […] After fixed using 4% PFA, the cells were subjected to β-gal staining and NKX6.1 antibody immunostaining, and fluorescently stained images were acquired using BZ-800 (Keyence). The number of NKX6.1-positive cells, the NKX6.1-positive ratio, and the β-gal-positive ratio were calculated using the BZ-[…]/Macro Cell Count function of that microscope. FIGS. 2-A and 3-A show the outline of this procedure. A reagent enabling proliferation of pancreatic endoderm cells derived from human iPS cells was searched for in the senescence-related reagents. […] Then, (1) the number of NKX6.1-positive cells, or (2) the ratio of NKX6.1-positive cells and the ratio of β gal-positive cells were measured after the culture. FIGS. 2-B to 2-D show the results.

[3] = test system: pancreatic endoderm cells (NKX6.1-positive); settings: added to medium containing Y-27632 50 μM, 6 days, FIG. 7
Description: The cells on Day 21 of expansion culture were cultured for 6 days using a culture medium obtained by adding various growth factors and small-molecule compounds to a culture medium for expansion culture containing Y-27632. The other conditions were the same as those of the screening of senescence-related reagents.
After passaged three times using a culture medium to which Y-27632 (50 μM) had been added, pancreatic endoderm cells were seeded on a 24-well plate coated with iMatrix at 2.0×10^5 cells/well. Each of screening reagents was added to the culture medium containing Y-27632 (50 μM), and then the cells were cultured. After 6 days, the ratio of NKX6.1-positive cells was checked through cell immunostaining.

O=S(=O)(c1cccc2cnccc12)N1CCCNCC1 [Fasudil hydrochloride]
effect of proliferating pancreatic endoderm cells (total cells, NKX6.1-positive cells) [1]: exhibited the effect of proliferating pancreatic endoderm cells

CC1(C)CCC(c2ccc(Cl)cc2)=C(CN2CCN(c3ccc(C(=O)NS(=O)(=O)c4ccc(N[C@H](CCN5CCOCC5)CSc5ccccc5)c(S(=O)(=O)C(F)(F)F)c4)cc3)CC2)C1 [ABT263]
ratio of β gal-positive cells (senescent cells) ([2]; 1 week, FIG. 2-D): reduction in the ratio of β gal-positive cells
cause inferred for the reduction in β gal-positive ratio ([2]; inferred from FIG. 2-B and 2-D): toxicity

CC1=C(C(=O)Nc2cc3cn[nH]c3cc2F)C(c2ccc(C(F)(F)F)cc2)CC(=O)N1 (centres unmarked) [GSK429286A]
effect of proliferating pancreatic endoderm cells (total cells, NKX6.1-positive cells) [1]: exhibited the effect of proliferating pancreatic endoderm cells

Cc1cccc(-c2n[nH]cc2-c2ccc3ncccc3n2)n1 [ALK5 inhibitor, 2-[3-[6-methylpyridin-2-yl]-1H-pyrazol-4-yl]-1,5-naphthyridine]
ratio of NKX6.1-positive cells (screening outcome) [3]: identified as candidates for a factor for improving expansion culture

O=C(NCc1ccccc1)c1csc(Nc2ccncn2)n1 [Thiazovivin]
effect of proliferating pancreatic endoderm cells (total cells, NKX6.1-positive cells) [1]: exhibited the effect of proliferating pancreatic endoderm cells

CCn1c(-c2nonc2N)nc2cnc(Oc3cccc(NC(=O)c4ccc(OCCN5CCOCC5)cc4)c3)cc21 [GSK269962]
effect of proliferating pancreatic endoderm cells (total cells, NKX6.1-positive cells) [1]: exhibited the effect of proliferating pancreatic endoderm cells

Cc1cncc2cccc(S(=O)(=O)N3CCCNC[C@@H]3C)c12 [H1152]
effect of proliferating pancreatic endoderm cells (total cells, NKX6.1-positive cells) [1]: exhibited the effect of proliferating pancreatic endoderm cells
